Source: ChEMBL document CHEMBL3045639, “Evaluation of three diatomaceous earth and one natural pyrethrum formulations against pupae of Tribolium confusum DuVal (Coleoptera: Tenebrionidae) on wheat and flour” (2006)
Activity calls are given as the source filed them. The calls are words filed in the database; no cut-off is given here.

Columns and labels:
Sitophilus oryzae [1] = assay: Insecticidal activity against Sitophilus oryzae (rice weevil) infected wheat assessed as mortality at 0.75 ppm applied as spray after 48 hr in presence of diatomaceous earth; assay type: functional
Sitophilus oryzae [2] = assay: Insecticidal activity against Sitophilus oryzae (rice weevil) infected wheat assessed as increase in mortality at 0.125 ppm applied as spray after 7 days in absence of diatomaceous earth; assay type: functional, organism-based
Sitophilus oryzae [3] = assay: Insecticidal activity against Sitophilus oryzae (rice weevil) infected wheat assessed as mortality at 0.75 ppm applied as spray after 7 days in absence of diatomaceous earth; assay type: functional; details: 168 h
Sitophilus oryzae [4] = assay: Insecticidal activity against Sitophilus oryzae (rice weevil) infected wheat assessed as increase in mortality at 0.125 to 0.25 ppm applied as spray after 48 hr in presence of diatomaceous earth; assay type: functional, organism-based
Sitophilus oryzae [5] = assay: Insecticidal activity against Sitophilus oryzae (rice weevil) infected wheat assessed as increase in mortality at 0.75 ppm applied as spray after 14 days in presence of diatomaceous earth; assay type: functional, organism-based
Tribolium confusum [6] = assay: Insecticidal activity against Tribolium confusum (confused flour beetle) infected wheat assessed as increase in mortality at 0.125 to 0.75 ppm applied as spray after 48 hr in presence of diatomaceous earth; assay type: functional, organism-based
Sitophilus oryzae [7] = assay: Insecticidal activity against Sitophilus oryzae (rice weevil) infected wheat assessed as increase in mortality at 0.75 ppm applied as spray after 14 days in absence of diatomaceous earth; assay type: functional, organism-based
Sitophilus oryzae [8] = assay: Insecticidal activity against Sitophilus oryzae (rice weevil) infected wheat assessed as decrease in progeny productionc at 0.125 to 0.75 ppm applied as spray after 60 days in presence of diatomaceous earth; assay type: functional, organism-based
Tribolium confusum [9] = assay: Insecticidal activity against Tribolium confusum (confused flour beetle) infected wheat assessed as increase in mortality at 0.125 to 0.75 ppm applied as spray after 7 days in absence of diatomaceous earth; assay type: functional, organism-based
Sitophilus oryzae [10] = assay: Insecticidal activity against Sitophilus oryzae (rice weevil) infected wheat assessed as decrease in progeny productionc at 0.125 to 0.75 ppm applied as spray after 60 days in absence of diatomaceous earth; assay type: functional, organism-based
Sitophilus oryzae [11] = assay: Insecticidal activity against Sitophilus oryzae (rice weevil) infected wheat assessed as mortality at 0.75 ppm applied as spray after 48 hr in absence of diatomaceous earth; assay type: functional
Tribolium confusum [12] = assay: Insecticidal activity against Tribolium confusum (confused flour beetle) infected wheat assessed as increase in mortality at 0.125 ppm applied as spray after 14 days in absence of diatomaceous earth; assay type: functional; details: 336 h
Sitophilus oryzae [13] = assay: Insecticidal activity against Sitophilus oryzae (rice weevil) infected wheat assessed as increase in mortality at 0.125 to 0.25 ppm applied as spray after 14 days in presence of diatomaceous earth; assay type: functional, organism-based
Tribolium confusum [14] = assay: Insecticidal activity against Tribolium confusum (confused flour beetle) infected wheat assessed as increase in mortality at 0.125 to 0.75 ppm applied as spray after 24 hr in absence of diatomaceous earth; assay type: functional, organism-based
Sitophilus oryzae [15] = assay: Insecticidal activity against Sitophilus oryzae (rice weevil) infected wheat assessed as mortality at 0.125 to 0.75 ppm applied as spray after 24 hr in absence of diatomaceous earth; assay type: functional
Tribolium confusum [16] = assay: Insecticidal activity against Tribolium confusum (confused flour beetle) infected wheat assessed as increase in mortality at 0.25 to 0.75 ppm applied as spray after 14 days in absence of diatomaceous earth; assay type: functional

## CC1(C)C(C=C(Cl)Cl)C1C(=O)OC(C#N)c1ccc(F)c(Oc2ccccc2)c1 (stereo unspecified) [CYFLUTHRIN]
Sitophilus oryzae [1]
  mortality at 0.75 ppm: 79%
Sitophilus oryzae [2]
  Activity: Active
Sitophilus oryzae [3]
  mortality at 0.75 ppm: > 98%
Sitophilus oryzae [4]
  Activity: Active
Sitophilus oryzae [5]
  Activity: Active
Tribolium confusum [6]
  Activity: Active
Sitophilus oryzae [7]
  Activity: Active
Sitophilus oryzae [8]
  Activity: Active
Tribolium confusum [9]
  Activity: Active
Sitophilus oryzae [10]
  Activity: inactive
Sitophilus oryzae [11]
  mortality at 0.75 ppm: 79%
Tribolium confusum [12]
  mortality at 0.125 ppm: > 91%
Sitophilus oryzae [13]
  Activity: Active
Tribolium confusum [14]
  Activity: Active
Sitophilus oryzae [15]
  mortality: 6%
Tribolium confusum [16]
  mortality: 100%
